Drawing on article PMC3366976, “Tuning the Drug Efflux Activity of an ABC Transporter in vivo by in vitro Selected DARPin Binders” (PLoS ONE, 2012), this text covers IC50 for one compound.

The target in this experiment is T1, LmrCD (Lactococcus cremoris, UniProt A2RI37+A2RI38, A2RI37:C179R).
T1 construct: gene lmrC
Kind of experiment: biochemical.

pIC50: −log10 of the molar value.

T1 sequence (A2RI37 entry or part of it C179R): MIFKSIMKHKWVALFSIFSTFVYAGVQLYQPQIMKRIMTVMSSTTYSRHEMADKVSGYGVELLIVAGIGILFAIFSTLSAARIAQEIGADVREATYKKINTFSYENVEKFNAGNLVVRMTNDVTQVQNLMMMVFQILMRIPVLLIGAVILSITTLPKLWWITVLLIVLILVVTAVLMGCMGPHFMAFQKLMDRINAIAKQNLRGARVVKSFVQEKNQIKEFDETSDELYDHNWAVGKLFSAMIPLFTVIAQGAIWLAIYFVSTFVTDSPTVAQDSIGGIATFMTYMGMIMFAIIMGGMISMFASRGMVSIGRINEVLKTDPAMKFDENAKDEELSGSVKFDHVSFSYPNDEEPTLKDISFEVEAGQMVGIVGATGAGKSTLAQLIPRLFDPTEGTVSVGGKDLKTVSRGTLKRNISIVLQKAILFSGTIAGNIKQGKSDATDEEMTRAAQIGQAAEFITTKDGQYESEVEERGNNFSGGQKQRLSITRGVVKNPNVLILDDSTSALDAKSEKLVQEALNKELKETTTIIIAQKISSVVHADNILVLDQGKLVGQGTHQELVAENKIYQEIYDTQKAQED
T1 sequence (A2RI38 entry or part of it): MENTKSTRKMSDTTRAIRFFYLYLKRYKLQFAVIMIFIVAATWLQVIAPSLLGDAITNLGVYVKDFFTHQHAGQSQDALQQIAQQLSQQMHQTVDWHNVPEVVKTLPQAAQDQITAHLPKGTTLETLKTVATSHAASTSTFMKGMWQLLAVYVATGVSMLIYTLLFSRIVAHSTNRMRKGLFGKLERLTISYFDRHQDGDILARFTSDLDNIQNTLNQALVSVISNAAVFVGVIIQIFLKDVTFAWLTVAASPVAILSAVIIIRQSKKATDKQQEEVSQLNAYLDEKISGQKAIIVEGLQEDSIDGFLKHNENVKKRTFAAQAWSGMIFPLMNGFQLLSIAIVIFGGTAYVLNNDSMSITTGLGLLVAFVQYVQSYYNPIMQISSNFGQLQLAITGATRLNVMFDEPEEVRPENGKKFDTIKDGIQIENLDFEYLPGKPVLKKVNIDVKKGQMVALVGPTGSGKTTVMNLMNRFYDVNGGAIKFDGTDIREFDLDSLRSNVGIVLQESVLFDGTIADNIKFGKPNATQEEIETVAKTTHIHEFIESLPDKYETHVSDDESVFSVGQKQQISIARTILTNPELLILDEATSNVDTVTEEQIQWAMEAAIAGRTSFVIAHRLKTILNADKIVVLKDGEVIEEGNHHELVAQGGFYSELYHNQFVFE

Broadly, the pIC50 is the negative decadic logarithm of the IC50, by convention in mol/L. On to `[O]=[V]([OH])([OH])[OH]` [orthovanadate], for which the negative logarithm of the IC50 (pIC50) was 3.92.
